Experimental data published in patent US4352803A, “Novel naphthyridine derivatives, intermediates thereof, processes for preparation thereof, and use thereof” (Dainippon Pharmaceutical Co., Ltd., priority 1978, dated 1982).
≈ marks a conversion by molar mass, not a printed value. Read-outs that look alike come from different tables or passages of the source.

Tests used:
Proteus mirabilis P-2381 = test: In vitro antibacterial activity (MIC), Proteus mirabilis P-2381; assay type: cell-based
Description: (§1) (MIC) (μg/ml) Method; Chemotherapy, 22(6), 1126 (1974)

[1] = test system: Serratia marcescens IFC 3736; test: In vitro antibacterial activity (MIC), Serratia marcescens IFC 3736; assay type: cell-based
Description: as §1

[2] = test system: Shigella flexneri 4a P-330; test: In vitro antibacterial activity (MIC), Shigella flexneri 4a P-330; assay type: cell-based; details: 4AP330, read-out: minimum inhibitory concentration (MIC)
Description: as §1

Proteus morganii Kono = test: In vitro antibacterial activity (MIC), Proteus morganii Kono; assay type: cell-based; details: Morganella morganii, read-out: minimum inhibitory concentration (MIC)
Description: as §1

[3] = test system: Salmonella enteritidis No. 1891; test: In vitro antibacterial activity (MIC), Salmonella enteritidis No. 1891; assay type: cell-based; details: Salmonella enterica, read-out: minimum inhibitory concentration (MIC)
Description: as §1

in vivo = details: mouse, in vivo, po
Experimental: The number of dead mice was counted after 7 days, and the value of median lethal dose (LD50, mg/kg) was calculated in accordance with the Behrens-Kaerber method.

[4] = test system: Salmonella typhimurium 8-9; test: In vitro antibacterial activity (MIC), Salmonella typhimurium 8-9; assay type: cell-based; details: Salmonella enterica, read-out: minimum inhibitory concentration (MIC)
Description: as §1

[5] = test system: Staphylococcus aureus No. 50774; test: In vitro antibacterial activity (MIC), Staphylococcus aureus No. 50774; assay type: cell-based
Description: as §1

[6] = test system: Staphylococcus aureus 209P JC-1; test: In vitro antibacterial activity (MIC), Staphylococcus aureus 209P JC-1; assay type: cell-based; details: read-out: minimum inhibitory concentration (MIC)
Description: as §1

[7] = test system: Pseudomonas aeruginosa Tsuchijima; test: In vitro antibacterial activity (MIC), Pseudomonas aeruginosa Tsuchijima; assay type: cell-based; details: read-out: minimum inhibitory concentration (MIC)
Description: as §1

Escherichia coli P-5101 [8] = test: In vitro antibacterial activity (MIC), Escherichia coli P-5101; assay type: cell-based
Description: as §1

Escherichia coli P-140a = test: In vitro antibacterial activity (MIC), Escherichia coli P-140a; assay type: cell-based; details: read-out: minimum inhibitory concentration (MIC)
Description: as §1

[9] = test system: Staphylococcus aureus No. 50774; test: in vivo efficacy against systemic infection in mice, Staphylococcus aureus No. 50774; details: NO.50774, in Mus musculus, po, 336 h
Experimental: Male mice (ddY) weighing about 20 g
Intravenous infection with (about
5 × 10^8 cells/mouse) of a bacterial
(§2) Twice, about 5 minutes and 6 hours after infection.

[10] = test system: Pseudomonas aeruginosa No. 12; test: In vitro antibacterial activity (MIC), Pseudomonas aeruginosa No. 12; assay type: cell-based
Description: as §1

[11] = test system: Streptococcus pyogenes 65A; test: In vitro antibacterial activity (MIC), Streptococcus pyogenes 65A; assay type: cell-based; details: read-out: minimum inhibitory concentration (MIC)
Description: as §1

[12] = test system: Klebsiella pneumoniae No. 13; test: In vitro antibacterial activity (MIC), Klebsiella pneumoniae No. 13; assay type: cell-based
Description: as §1

[13] = test system: Corynebacterium pyogenes C-21; test: In vitro antibacterial activity (MIC), Corynebacterium pyogenes C-21; assay type: cell-based; details: Rhodococcus (subgen. Prescottella) equi
Description: as §1

[14] = test system: Streptococcus faecalis P-2473; test: In vitro antibacterial activity (MIC), Streptococcus faecalis P-2473; assay type: cell-based; details: Enterococcus faecalis
Description: as §1

[15] = test system: Escherichia coli NIHJ JC-2; test: In vitro antibacterial activity (MIC), Escherichia coli NIHJ JC-2; assay type: cell-based
Description: as §1

[16] = test system: Enterobacter cloacae P-2540; test: In vitro antibacterial activity (MIC), Enterobacter cloacae P-2540; assay type: cell-based
Description: as §1

Escherichia coli P-5101 [17] = test: in vivo efficacy against systemic infection in mice, Escherichia coli P-5101; details: P5101, in Mus musculus, po, 168 h
Experimental: Male mice (ddY) weighing about 20 g
Intraperitoneal infection with (about
9 × 10^6 cells/mouse) of a bacterial
(§3) suspension in trypto-soy broth with 4% mucin.
as §2

[18] = test system: Pseudomonas aeruginosa No. 12; test: in vivo efficacy against systemic infection in mice, Pseudomonas aeruginosa No. 12; details: NO.12, in Mus musculus, po, 168 h
Experimental: Male mice (ddY) weighing about 20 g
(3) Pseudomonas aeruginosa No. 12;
(about 5 × 10^3 cells/mouse) of a bacterial
as §3, §2
The numerals in the table show ED50 (mg/kg). ED50 values were

Shigella flexneri 2a = test: In vitro antibacterial activity (MIC), Shigella flexneri 2a; assay type: cell-based; details: read-out: minimum inhibitory concentration (MIC)
Description: as §1

[19] = test system: Gram-positive and Gram-negative bacteria; test: in vivo therapeutic efficacy against systemic infections in mice (overall); design: species or system mice (ddY); details: Gram-negative, particularly Pseudomonas aeruginosa
[20] = P2381, Proteus mirabilis P-2381, read-out: minimum inhibitory concentration (MIC)
[21] = Serratia marcescens, IFC3736, read-out: minimum inhibitory concentration (MIC)
[22] = Salmonella enteritidis No. 1891
[23] = Staphylococcus aureus No. 50774, read-out: minimum inhibitory concentration (MIC)
[24] = Staphylococcus aureus 209P JC-1
[25] = Pseudomonas aeruginosa Tsuchijima
[26] = Escherichia coli, P5101, read-out: minimum inhibitory concentration (MIC)
[27] = Pseudomonas aeruginosa No. 12, read-out: minimum inhibitory concentration (MIC)
[28] = Klebsiella pneumoniae, NO.13, read-out: minimum inhibitory concentration (MIC)
[29] = C21, Corynebacterium pyogenes C-21, read-out: minimum inhibitory concentration (MIC)
[30] = P2473, Streptococcus faecalis P-2473, read-out: minimum inhibitory concentration (MIC)
[31] = NIHJJC2, Escherichia coli NIHJ JC-2, read-out: minimum inhibitory concentration (MIC)
[32] = P2540, Enterobacter cloacae P-2540, read-out: minimum inhibitory concentration (MIC)
[33] = Klebsiella pneumoniae No. 13, read-out: minimum inhibitory concentration (MIC)
[34] = Staphylococcus aureus, NO.50774, read-out: minimum inhibitory concentration (MIC)
[35] = P2473, read-out: minimum inhibitory concentration (MIC)
[36] = Escherichia coli, NIHJJC2, read-out: minimum inhibitory concentration (MIC)
[37] = Enterobacter cloacae, P2540, read-out: minimum inhibitory concentration (MIC)

SMILES | MIC (Proteus mirabilis P-2381; [20]) | MIC [1, 21] | MIC [2] | MIC (Proteus morganii Kono) | MIC [3, 22] | LD50 at 168 h (in vivo) | MIC ([4]; Salmonella typhimurium 8-9) | MIC [5, 23] | MIC [6, 24] | MIC [7, 25] | MIC (Escherichia coli P-5101 [8]; [26]) | MIC (Escherichia coli P-140a; Escherichia coli) | ED50 [9] | MIC [10, 27] | MIC ([11]; Streptococcus pyogenes 65A) | MIC [12, 28] | MIC [13, 29] | ED50 (Escherichia coli P-5101 [17]) | ED50 [18] | MIC (Shigella flexneri 2a) | also measured
CCn1cc(C(=O)O)c(=O)c2cc(Cl)c(N3CCNCC3)nc21.Cl [Compound 3, 6-Chloro-1-ethyl-1,4-dihydro-4-oxo-7-(1-piperazinyl)-1,8-naphthyridine-3-carboxylic acid hydrochloride] | 3.13 µg/mL | 1.56 µg/mL | 1.56 µg/mL | 1.56 µg/mL | 0.39 µg/mL | > 2000 mg/kg | 0.39 µg/mL | 6.25 µg/mL | 3.13 µg/mL | 6.25 µg/mL | 0.39 µg/mL | 0.39 µg/mL | ~90 mg/kg | 6.25 µg/mL | 12.5 µg/mL | 1.56 µg/mL | 6.25 µg/mL | 6.5 mg/kg | 58.6 mg/kg | 0.78 µg/mL | MIC [14, 30]: 25 µg/mL; MIC [15, 31]: 0.78 µg/mL; MIC [16, 32]: 0.78 µg/mL
C=Cn1cc(C(=O)O)c(=O)c2cc(Cl)c(N3CCNCC3)nc21 [Compound 4, 6-Chloro-1,4-dihydro-4-oxo-7-(1-piperazinyl)-1-vinyl-1,8-naphthyridine-3-carboxylic acid] | 0.78 µg/mL (≈ 2.33 µM) |  | 0.2 µg/mL (≈ 0.597 µM) |  | 0.2 µg/mL (≈ 0.597 µM) | > 2000 mg/kg | 0.2 µg/mL (≈ 0.597 µM) | 6.25 µg/mL (≈ 18.7 µM) | 3.13 µg/mL (≈ 9.35 µM) | 1.56 µg/mL (≈ 4.66 µM) |  |  | ~100 mg/kg | 1.56 µg/mL (≈ 4.66 µM) | 6.25 µg/mL (≈ 18.7 µM) |  | 6.25 µg/mL (≈ 18.7 µM) | 4.8 mg/kg | 18.5 mg/kg | 0.2 µg/mL (≈ 0.597 µM) | MIC ([1]; IFC3736, Serratia marcescens IFC 3736, read-out: minimum inhibitory concentration (MIC)): 0.78 µg/mL (≈ 2.33 µM); MIC (Proteus morganii Kono; Proteus morganii Kono): 0.2 µg/mL (≈ 0.597 µM); MIC (Escherichia coli P-5101 [8]; P5101, Escherichia coli P-5101, read-out: minimum inhibitory concentration (MIC)): 0.1 µg/mL (≈ 0.299 µM); MIC (Escherichia coli P-140a; P140A, Escherichia coli P-140a): 0.1 µg/mL (≈ 0.299 µM); MIC [12, 33]: 0.39 µg/mL (≈ 1.17 µM); MIC [14, 30]: 12.5 µg/mL (≈ 37.3 µM); MIC [15, 31]: 0.2 µg/mL (≈ 0.597 µM); MIC [16, 32]: 0.2 µg/mL (≈ 0.597 µM)
CCn1cc(C(=O)O)c(=O)c2ccc(C)nc21 [E, 1-Ethyl-1,4-dihydro-7-methyl-4-oxo-1,8-naphthyridine-3-carboxylic acid] |  | 6.25 µg/mL (≈ 26.9 µM) |  | 6.25 µg/mL (≈ 26.9 µM) |  |  |  |  |  |  | 3.13 µg/mL (≈ 13.5 µM) |  | > 800 mg/kg |  |  | 12.5 µg/mL (≈ 53.8 µM) |  | 29.2 mg/kg | > 200 mg/kg | 6.25 µg/mL (≈ 26.9 µM) | MIC ([3]; ENTERITIDIS): 3.13 µg/mL (≈ 13.5 µM); MIC ([4]; TYPHIMURIUM): 3.13 µg/mL (≈ 13.5 µM); MIC [5, 34]: 50 µg/mL (≈ 215 µM); MIC ([6]; Staphylococcus aureus, 209P): 100 µg/mL (≈ 431 µM); MIC ([7]; Pseudomonas aeruginosa): 200 µg/mL (≈ 861 µM); MIC ([10]; Pseudomonas aeruginosa, NO.12, read-out: minimum inhibitory concentration (MIC)): 200 µg/mL (≈ 861 µM); MIC ([11]; Streptococcus pyogenes, 65A): > 200 µg/mL; MIC ([13]; C21, read-out: minimum inhibitory concentration (MIC)): > 200 µg/mL; MIC [14, 35]: > 200 µg/mL; MIC [15, 36]: 12.5 µg/mL (≈ 53.8 µM); MIC [16, 37]: 6.25 µg/mL (≈ 26.9 µM); therapeutic effects in vivo against Gram-negative bacteria, relative to compounds 1, 1' and 2 [19]: clearly inferior
CCn1cc(C(=O)O)c(=O)c2cnc(N3CCNCC3)nc21 [F, 8-Ethyl-5,8-dihydro-5-oxo-2-(1-piperazinyl)pyrido[2,3-d] pyrimidine-6-carboxylic acid] |  | 3.13 µg/mL (≈ 10.3 µM) | 1.56 µg/mL (≈ 5.14 µM) | 3.13 µg/mL (≈ 10.3 µM) |  |  |  |  | 12.5 µg/mL (≈ 41.2 µM) | 12.5 µg/mL (≈ 41.2 µM) | 1.56 µg/mL (≈ 5.14 µM) | 1.56 µg/mL (≈ 5.14 µM) | 215 mg/kg | 25 µg/mL (≈ 82.4 µM) |  |  | 25 µg/mL (≈ 82.4 µM) | 21.2 mg/kg | 99.5 mg/kg | 3.13 µg/mL (≈ 10.3 µM) | MIC (Proteus mirabilis P-2381; Proteus mirabilis, P2381, read-out: minimum inhibitory concentration (MIC)): 3.13 µg/mL (≈ 10.3 µM); MIC ([3]; ENTERITIDIS): 1.56 µg/mL (≈ 5.14 µM); MIC ([4]; TYPHIMURIUM): 1.56 µg/mL (≈ 5.14 µM); MIC [5, 34]: 25 µg/mL (≈ 82.4 µM); MIC ([11]; Streptococcus pyogenes, 65A): 200 µg/mL (≈ 659 µM); MIC [12, 33]: 6.25 µg/mL (≈ 20.6 µM); MIC [14, 35]: 200 µg/mL (≈ 659 µM); MIC [15, 36]: 1.56 µg/mL (≈ 5.14 µM); MIC [16, 37]: 1.56 µg/mL (≈ 5.14 µM)
